In the supplement of paper PMC10331698:
± gives the standard deviation of the averaged measurements.

Assays:
Assay in all cases: level (log10 ratio to DMSO vehicle control); higher = higher biomarker level / cell amount than vehicle control
[1] = compound: C=C(C)C(=O)OCCC(F)(F)C(F)(F)C(F)(F)C(F)(F)C(F)(F)C(F)(F)C(F)(F)C(F)(F)F [8:2 Fluorotelomer methacrylate] (in DMSO)
Method: (§1)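 BioMAP Diversity Plus panel of 12 human primary cell co-culture systems (3C, 4H, LPS, SAg, BT, BF4T, BE3C, CASM3C, HDF3CGF, KF3CT, MyoF, Mphg). Compounds were added 1 h before stimulation and left for 24 h (MyoF 48 h; BT 72 h for soluble read-outs or 6 d for IgG). Biomarkers were read by ELISA, cytotoxicity by SRB, PBMC viability and proliferation by Alamar Blue. Each well value was divided by the mean of 8 DMSO control wells on the same plate and log10 transformed; duplicate blinded samples were tested at 4 concentrations.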

[2] = compound: CN(C(=O)C(F)(F)C(F)(F)C(F)(F)F)[Si](C)(C)C [N-Methyl-N-trimethylsilylheptafluorobutyramide] (in DMSO)
Method: as §1

[3] = compound: O=C(O)C(F)(F)C(F)(F)C(F)(F)C(F)(F)C(F)(F)C(F)(F)C(F)(F)C(F)(F)F [Perfluorononanoic acid] (in DMSO)
Method: as §1

[4] = compound: O=C(O)C(F)(F)C(F)(F)C(F)(F)OC(F)(F)F [Perfluoro(4-methoxybutanoic) acid] (in DMSO)
Method: as §1

[5] = compound: O=C(O)C(F)(F)OC(F)(F)C(F)(F)OC(F)(F)C(F)(F)OC(F)(F)C(F)(F)C(F)(F)C(F)(F)F [Perfluoro-3,6,9-trioxatridecanoic acid] (in DMSO); settings: 6700 nM
Method: as §1

[6] = compound: O=C(O)C(F)(OC(F)(F)C(F)(OC(F)(F)C(F)(OC(F)(F)C(F)(F)C(F)(F)F)C(F)(F)F)C(F)(F)F)C(F)(F)F [Perfluoro-(2,5,8-trimethyl-3,6,9-trioxadodecanoic)acid] (in DMSO)
Method: as §1

[7] = compound: O=S(=O)(O)C(F)(F)C(F)(F)OC(F)(F)C(F)(F)F [Perfluoro(2-ethoxyethane)sulfonic acid] (in DMSO)
Method: as §1

[8] = compound: OCCC(F)(F)C(F)(F)C(F)(F)C(F)(F)F [4:2 Fluorotelomer alcohol] (in DMSO)
Method: as §1

Test System	level (log10) ([1]; 6700 nM)	level (log10) ([1]; 20000 nM)	level (log10) ([2]; 6700 nM)	level (log10) ([2]; 20000 nM)	level (log10) ([2]; 60000 nM)	level (log10) ([3]; 6700 nM)	level (log10) ([3]; 20000 nM)	level (log10) ([4]; 6700 nM)	level (log10) ([4]; 20000 nM)	level (log10) ([4]; 60000 nM)	level (log10) [5]	level (log10) ([6]; 1100 nM)	level (log10) ([6]; 3300 nM)	level (log10) ([6]; 10000 nM)	level (log10) ([7]; 6700 nM)	level (log10) ([7]; 20000 nM)	level (log10) ([7]; 60000 nM)	level (log10) ([8]; 6700 nM)	level (log10) ([8]; 20000 nM)	level (log10) ([8]; 60000 nM)
KF3CT:MMP-9	-0.003 ± 0.023	-0.014 ± 0.018	-0.0235 ± 0.005	-0.0115 ± 0.033	0.0055 ± 0.00071	-0.0575 ± 0.053	-0.097 ± 0.034	0.001 ± 0.0057	0.0055 ± 0.0092	0.0205 ± 0.013	-0.278 ± 0.039	-0.0035 ± 0.00071	-0.022 ± 0.044	-0.0125 ± 0.016	0.009 ± 0.0085	0.036 ± 0.016	0.0515 ± 0.00071	-0.033 ± 0.011	-0.0435 ± 0.028	0.002 ± 0.034
HDF3CGF:M-CSF	-0.0295 ± 0.019	-0.093 ± 0.013	-0.0375 ± 0.03	-0.038 ± 0.0085	-0.029 ± 0.055	0.0115 ± 0.025	-0.028 ± 0.028	-0.0135 ± 0.0035	-0.0075 ± 0.005	0.0115 ± 0.039	-0.158 ± 0.016	0.0165 ± 0.0064	0.0005 ± 0.033	-0.03 ± 0.092	0.004 ± 0.011	-0.0075 ± 0.0092	-0.009 ± 0.016	-0.027 ± 0.067	-0.035 ± 0.023	-0.004 ± 0.0057
MyoF:MMP-1	-0.015 ± 0.02	-0.0075 ± 0.0021	-0.007 ± 0.0028	-0.0055 ± 0.005	-0.017 ± 0.018	-0.025 ± 0.031	0.0665 ± 0.0021	-0.0165 ± 0.0078	-0.0245 ± 0.026	0.0205 ± 0.06	0.0205 ± 0.029	-0.048 ± 0.0014	-0.0475 ± 0.012	-0.03 ± 0.027	-0.005 ± 0.014	-0.0365 ± 0.00071	0.0155 ± 0.037	-0.0345 ± 0.04	-0.026 ± 0.027	0.0215 ± 0.0064
MyoF:CXCL8/IL-8	0.0095 ± 0.025	0.004 ± 0.0085	0.0005 ± 0.025	0.003 ± 0.0042	0.009 ± 0.027	-0.03 ± 0.079	0.0445 ± 0.044	-0.0145 ± 0.018	-0.004 ± 0.0042	0.01 ± 0.0028	0.056 ± 0.0057	0.0475 ± 0.077	0.005 ± 0.0028	-0.006 ± 0.016	0.0095 ± 0.037	0.0225 ± 0.03	0.03 ± 0.024	-0.039	-0.0475 ± 0.0021	0.0435 ± 0.0078
3C:CD62E/E-Selectin	-0.024 ± 0.0085	-0.0225 ± 0.005	-0.0115 ± 0.015	-0.007 ± 0.0042	0.0015 ± 0.037	-0.0195 ± 0.0078	-0.013 ± 0.013	-0.012 ± 0.057	-0.0085 ± 0.046	-0.014 ± 0.0085	-0.0355 ± 0.0092	-0.0005 ± 0.016	-0.0035 ± 0.005	0.019 ± 0.0071	0.0125 ± 0.012	0	0.0125 ± 0.0064	-0.019 ± 0.021	-0.012 ± 0.0014	-0.0105 ± 0.0078
BE3C:tPA	-0.0125 ± 0.067	-0.036 ± 0.082	-0.018 ± 0.025	-0.0275 ± 0.0064	-0.0195 ± 0.011	-0.012 ± 0.0042	-0.172 ± 0.023	0.002 ± 0.023	-0.0065 ± 0.011	-0.0015 ± 0.016	-0.452 ± 0.005	-0.0035 ± 0.025	0.0075 ± 0.023	0.017 ± 0.04	-0.004 ± 0.034	-0.053 ± 0.013	0.0595 ± 0.013	-0.0115 ± 0.0035	-0.015	0.013 ± 0.016
HDF3CGF:TIMP-2	-0.001 ± 0.013	-0.0395 ± 0.012	-0.0155 ± 0.036	0.002 ± 0.017	-0.0065 ± 0.049	0.0105 ± 0.033	0.0805 ± 0.026	0.019 ± 0.025	0.029 ± 0.055	0.005 ± 0.057	-0.291 ± 0.005	0.011 ± 0.0042	-0.0035 ± 0.0064	-0.013 ± 0.047	-0.011 ± 0.0099	-0.0305 ± 0.015	0.02 ± 0.059	-0.0305 ± 0.026	-0.01 ± 0.017	-0.044 ± 0.027
